Source: patent US20060128675A1, “Method for monitoring the effectiveness of teracycline in the treatment of asthma” (priority 2002, published 2006)

How the values were obtained:
[1] = system: rheumatoid arthritis (RA) patients; conditions: mild and moderate RA patients; cited from earlier work
[2] = system: IgE production by stimulated PBMC from asthmatic subjects; test: IgE production in vitro by anti-CD40 mAb + rhIL-4 stimulated PBMC from asthmatic subjects (IgE ELISA of supernatants); type: cell-based, human; conditions: 10 day culture; for IgE: anti-CD40 mAb 1 ug/ml + rhIL-4 200 U/ml, ± SE, 5 asthmatic subjects; for inhibition at 0.1 µg/mL / inhibition at 1 µg/mL / inhibition at 10 µg/mL: Homo sapiens, PBMC, 240 h, versus anti-CD40 + rhIL-4 without treatment
Procedure: (§1) PBMC were separated from blood on a Ficoll-Paque (Pharmacia, Piscataway, N.J.) gradient (density 1.077). The PBMC were carefully removed using a transfer pipette (VWR Scientific, San Francisco, Calif.). Cells were washed twice in RPMI-1640 medium (GIBCO/BRL, Grand Island, N.Y.), resuspended in RPMI (3 ml), and counted on a hemocytometer (Fisher Scientific, Springfield, N.J.). Viability was >98%, as judged by trypan blue exclusion.
Studies of IgE responses induced in vitro were carried out according to the method of Sampson and Buckley in J. Immunol 1981, 127: 829-834. Briefly, PBMC (1.5×10^6 in 1 ml) were cultured +anti-CD40 mAb (1 ug/ml) (BD Pharmingen, San Diego, Calif.), ± recombinant human interleukin-4 (rhIL-4) (200 U/ml) (Genzyme Corp., Boston, Mass.), in the presence or absence of varying concentrations of either minocycline (Lederle Parenterals Inc., Carolina, Puerto Rico) or doxycycline (American Pharmaceutical Partner Inc., Schaumburg, Ill.), 0.1, 1.0, 10 ug/ml) for 0, 3, and 10 days at 37° C. in complete medium in a humidified 4% CO2 atmosphere. Cell viability was >98%, as judged by trypan blue exclusion, on day 10.
Antibiotics were reconstituted in sterile dH2O, according to manufacturer's recommendations. Complete medium contained RPMI-1640 (Fisher Scientific) and was supplemented with N-2-hydroxyethylpiperazine-N′-2-ethanesulfonic acid buffer (HEPES) (25 mM) (Fisher Scientific), penicillin (100 U/ml) (GIBCO/BRL), streptomycin (100 ug/ml) (Eli Lilly and Co., Indianapolis, Ind.), L-glutamine (2 mM) (GIBCO/BRL), and 10% Fetal Calf Serum (FCS) (GIB CO/BRL). The concentration of rhIL-4 in culture was within 1 bog of physiologic relevance (<100 U/ml), according to bioassay data provided by supplier.
(§2) For the in vitro quantitative determination of IgE content in cell culture supernatants, solid phase sandwich enzyme linked immunosorbent assays (ELISAs) were performed using IgE ELISA Test Kits (Abexon Trend, Ramsey, Minn.). All ELISAs were performed according to the manufacturer's recommended procedure. Specimens were analyzed in duplicate and a standard curve was derived from known concentrations of IgE. Plates were read using an automated microplate reader (Model ELX800) (Bio-Tek Instruments, Inc., Winooski, Vt.), with a 450-nm measurement filter. Optical densities were converted to IU/ml and/or ng/ml. (1 IU=2.4 ng/IgE protein).

[3] = system: IgE production by PBMC from non asthmatic subjects; test: IgE production in vitro by anti-CD40 mAb + rhIL-4 stimulated PBMC from non asthmatic subjects; type: cell-based, human; conditions: anti-CD40/rhIL-4
Procedure: as §1
Studies of IgE responses induced in vitro were carried out according to the method of Sampson and Buckley in J. Immunol 1981, 127: 829-834. […]
as §2, with “All ELISAs were performed according to the manufacturer's recommended procedure.” left out, “Optical densities were converted to IU/ml and/or ng/ml. (1 IU=2.4 ng/IgE protein).” left out

Row | SMILES | side effects [1] | IgE ([2]; 0.1 ug/ml) [ng/mL] | IgE ([2]; 1.0 ug/ml) [ng/mL] | IgE ([2]; 10 ug/ml) [ng/mL] | inhibition at 0.1 µg/mL ([2]; 0.1 ug/ml) [%] | inhibition at 1 µg/mL ([2]; 1.0 ug/ml) [%] | inhibition at 10 µg/mL ([2]; 10 ug/ml) [%] | effect on IgE responses of PBMC of non asthmatic donors [3]
1 | CN(C)c1ccc(O)c2c1C[C@H]1C[C@H]3[C@H](N(C)C)C(O)=C(C(N)=O)C(=O)[C@@]3(O)C(O)=C1C2=O [minocycline] | no side effects | 16 ± 5 | 18 ± 7 | 5 ± 2 | 43 | 36 | 83 | no effect
2 | C[C@H]1c2cccc(O)c2C(=O)C2=C(O)[C@]3(O)C(=O)C(C(N)=O)=C(O)[C@@H](N(C)C)[C@@H]3[C@@H](O)[C@@H]21 [doxycycline] | – | 20 ± 9 | 14 ± 7 | 5 ± 2 | 29 | 50 | 83 | no effect
